Measurements as given in publication PMC2964311, “The Human Host Defense Peptide LL-37 Interacts with Neisseria meningitidis Capsular Polysaccharides and Inhibits Inflammatory Mediators Release” (PLoS ONE, 2010).
≈ marks a conversion by molar mass, not a printed value.

Key:
[1] = tested on: meningococcal CPS-lpxA polymers; test: Electrophoretic mobility shift assay (EMSA) of CPS complex with LL-37, CD14 and LBP; format: binding, Neisseria meningitidis; conditions: 5 µg LL-37, 0.5 µg rCD14, 0.5 µg rLBP, 3 h 37°C; 8% native PAGE, Western blot; Figure 8 lane 5
Experimental: To assess binding of CPS to LL-37 in the presence of human CD14 and LBP, an EMSA assay using native gel conditions was performed. Serogroup B CPS purified from a LOS-deficient meningococcal lpxA strain were dissolved in sterile H2O at 1 mg/ml concentration and 20 µl were transferred into an Eppendorf tube mixed with 10 µl (5 µg) of LL-37, 10 µl (0.5 µg) of human rCD14 and 10 µl (0.5 µg) of rLBP (R&D Systems) in […] and incubated for 3 h at 37°C. An aliquot of 7.5 µl of the mixed complexes were transferred into a new Eppendorf tube and mixed with an equal volume of sample buffer (0.1 M Tris-glycine buffer containing 20% glycerol and bromophenol blue) and 15 µl of the mixture were loaded on 8% native polyacrylamide gel electrophoresis (PAGE) without SDS as previously described. Electrophoresis was performed with Tris-glycine buffer pH 8.8 without SDS and run for 2 h at 4°C. The gel-shifting of CPS complexes was detected by Western blot method using biotinylated anti CD14 and anti LBP antibodies (R&D Systems) diluted 1∶1500× with blocking buffer.

[2] = tested on: N. gonorrhoeae strain FA 19; conditions: N. gonorrhoeae FA19 (non-encapsulated); assays in triplicate
Experimental: The peptides were dissolved in 0.01 % (v/v) acetic acid and stored at −20°C prior to use. Antibacterial assays were performed as described previously and used N. gonorrhoeae strain FA 19. All assays were performed in triplicate and values are reported as the minimal inhibitory concentration (MIC).

TLR2 = test: Neutralization of the TLR2-mediated response induced by phospholipid extract PL-lpxA; format: cell-based; conditions: phospholipid extraction from LOS-deficient meningococci
THP-1 cells [3] = test: IL-6 release from THP-1 cells induced with meningococcal CPS pre-incubated with peptide (ELISA); format: cell-based, human; conditions: THP-1 cells induced overnight with CPS-lpxA pre-incubated with 2 µg/ml peptide, 30 min, 37°C; Figure 1B
Experimental: Human THP-1 (macrophage-like cells) and murine RAW 264.7 (TLR4-sufficient), 23ScCr (TLR4-deficient) and HEK-TLR2/6/CD14 stably transfected cell lines were stimulated with meningococcal CPS polymers with or without pre-incubation with LL-37 and its analogs (Table 1). CPS polymers were purified from the LPS-deficient serogroup B Neisseria meningitidis lpxA mutant as well as other meningococcal serogroups A, B, C, W135 and Y. Purified CPS samples were freshly dissolved in pyrogen-free sterile H2O at 1 mg/ml stock concentration and vortexed for 2 min. Working CPS concentrations (ranging from 100 µg/ml to 50 ng/ml) were made in duplicate wells using sterile PBS by serial fold dilutions in the 96-well tissue culture plates (Becton Dickinson, Franklin Lakes, NJ) at 50 µl final volumes. […] Freshly grown THP-1 cells and HEK-TLR2/6 transfected cells as well as murine macrophages, each adjusted to 10^6 cell/ml and 250 µl aliquots were dispensed into each well at final 250×10^3 cell density in the designated 96-well plates. The plates were incubated overnight at 37°C with 5% CO2 and humidity. […]
(§1) The cytokines TNFα, IL-6 and CXCL10 (IP-10), released from THP-1 cells, and IL-8, released from HEK-TLR2 transfected cells stimulated with meningococcal CPS polymers, were quantified by DuoSet ELISA (R&D Systems) as previously described.

[4] = tested on: HEK-TLR2/6 stably transfected cells; test: IL-8 release from HEK-TLR2/6 stably transfected cells induced with meningococcal CPS pre-incubated with peptide (ELISA); format: cell-based, human
Experimental: (§2) Human THP-1 (macrophage-like cells) and murine RAW 264.7 (TLR4-sufficient), 23ScCr (TLR4-deficient) and HEK-TLR2/6/CD14 stably transfected cell lines were stimulated with meningococcal CPS polymers with or without pre-incubation with LL-37 and its analogs (Table 1). CPS polymers were purified from the LPS-deficient serogroup B Neisseria meningitidis lpxA mutant as well as other meningococcal serogroups A, B, C, W135 and Y. Purified CPS samples were freshly dissolved in pyrogen-free sterile H2O at 1 mg/ml stock concentration and vortexed for 2 min. Working CPS concentrations (ranging from 100 µg/ml to 50 ng/ml) were made in duplicate wells using sterile PBS by serial fold dilutions in the 96-well tissue culture plates (Becton Dickinson, Franklin Lakes, NJ) at 50 µl final volumes. Cationic peptides (2, 4 or 8 µg/ml) or PBS equivalent volumes were added to designated wells and pre-incubated for 30 min at 37°C. Freshly grown THP-1 cells and HEK-TLR2/6 transfected cells as well as murine macrophages, each adjusted to 10^6 cell/ml and 250 µl aliquots were dispensed into each well at final 250×10^3 cell density in the designated 96-well plates. The plates were incubated overnight at 37°C with 5% CO2 and humidity. Supernatants from stimulated cells were harvested and stored at −20°C until use.
as §1

RAW 264.7 macrophages = test: Nitric oxide release from RAW 264.7 macrophages induced with meningococcal CPS (Griess method); format: cell-based, murine
Experimental: as §2
Freshly grown adherent RAW 246.7 or 23ScCr (TLR4-deficient) macrophages were harvested, washed and re-suspended in Dulbecco's complete media, counted and adjusted to 10^6 cell/ml. 250 µl aliquots were then dispensed into each well of a 96-well plate at final 250×10^3 cell density prior to stimulation with purified CPS polymers with or without cationic peptides. The induced RAW 264.7 or 23ScCr macrophages were incubated overnight at 37°C with 5% CO2 and supernatants were harvested and saved. Nitric oxide release was quantified using the Greiss chemical method as previously described.

THP-1 cells [5] = test: TNFα release from THP-1 cells induced with meningococcal CPS pre-incubated with peptide (ELISA); format: cell-based, human; conditions: THP-1 cells induced overnight with serogroup B CPS-lpxA pre-incubated with 2 µg/ml peptide, 30 min, 37°C; Figure 1A
Experimental: Human THP-1 (macrophage-like cells) and murine RAW 264.7 (TLR4-sufficient), 23ScCr (TLR4-deficient) and HEK-TLR2/6/CD14 stably transfected cell lines were stimulated with meningococcal CPS polymers with or without pre-incubation with LL-37 and its analogs (Table 1). CPS polymers were purified from the LPS-deficient serogroup B Neisseria meningitidis lpxA mutant as well as other meningococcal serogroups A, B, C, W135 and Y. Purified CPS samples were freshly dissolved in pyrogen-free sterile H2O at 1 mg/ml stock concentration and vortexed for 2 min. Working CPS concentrations (ranging from 100 µg/ml to 50 ng/ml) were made in duplicate wells using sterile PBS by serial fold dilutions in the 96-well tissue culture plates (Becton Dickinson, Franklin Lakes, NJ) at 50 µl final volumes. […] Freshly grown THP-1 cells and HEK-TLR2/6 transfected cells as well as murine macrophages, each adjusted to 10^6 cell/ml and 250 µl aliquots were dispensed into each well at final 250×10^3 cell density in the designated 96-well plates. The plates were incubated overnight at 37°C with 5% CO2 and humidity. Supernatants from stimulated cells were harvested and stored at −20°C until use.
as §1

[6] = tested on: TLR4-sufficient and TLR4-deficient murine macrophages; test: CXCL10 (IP-10) release from murine macrophages induced with meningococcal CPS; format: cell-based
Experimental: as §2, with “The plates were incubated overnight at 37°C with 5% CO2 and humidity. Supernatants from stimulated cells were harvested and stored at −20°C until use.” left out
as §1

## CC[C@H](C)[C@H](NC(=O)[C@H](CCCCN)NC(=O)[C@H](CCC(=O)O)NC(=O)[C@H](CCCCN)NC(=O)[C@H](CO)NC(=O)[C@H](CCCCN)NC(=O)[C@H](CCCNC(=N)N)NC(=O)[C@H](Cc1ccccc1)NC(=O)[C@H](Cc1ccccc1)NC(=O)[C@H](CC(=O)O)NC(=O)CNC(=O)[C@H](CC(C)C)NC(=O)[C@@H](N)CC(C)C)C(=O)NCC(=O)N[C@@H](CCCCN)C(=O)N[C@@H](CCC(=O)O)C(=O)N[C@@H](Cc1ccccc1)C(=O)N[C@@H](CCCCN)C(=O)N[C@@H](CCCNC(=N)N)C(=O)N[C@H](C(=O)N[C@H](C(=O)N[C@@H](CCC(N)=O)C(=O)N[C@@H](CCCNC(=N)N)C(=O)N[C@H](C(=O)N[C@@H](CCCCN)C(=O)N[C@@H](CC(=O)O)C(=O)N[C@@H](Cc1ccccc1)C(=O)N[C@@H](CC(C)C)C(=O)N[C@@H](CCCNC(=N)N)C(=O)N[C@@H](CC(N)=O)C(=O)N[C@@H](CC(C)C)C(=O)N[C@H](C(=O)N1CCC[C@H]1C(=O)N[C@@H](CCCNC(=N)N)C(=O)N[C@H](C(=O)N[C@@H](CCC(=O)O)C(=O)N[C@@H](CO)C(=O)O)[C@@H](C)O)C(C)C)[C@@H](C)CC)C(C)C)[C@@H](C)CC [LL-37]
[1]
  Gel-shift of CPS-lpxA-CD14-LBP complexes: caused a gel-shift
[2]
  MIC: 7.8 µg/mL (≈ 1.74 µM)
TLR2
  Neutralization of biologic activity of PL-lpxA: failed to neutralize
THP-1 cells [3]
  IL-6 release: inhibited
[4]; HEK-TLR2/6 cells induced with CPS-lpxA pre-incubated with 2 µg/ml peptide, Figure 1C
  IL-8 release: inhibited
[4]; HEK-TLR2/6 cells, serogroup A CPS pre-incubated with 4 µg/ml peptide, Figure 2A
  Neutralization of CPS-induced IL-8 release: neutralized
[4]; HEK/TLR2/6 cells stimulated with different meningococcal CPS structures pre-incubated with LL-37
  IL-8 release: significant reduction in IL-8 release
[4]; HEK/TLR2/6 cells, vaccine grade serogroup A CPS (MAPS) pre-incubated with 2 µg/ml of LL-37, Figure 2B
  IL-8 release induced by MAPS: significantly reduced
RAW 264.7 macrophages; RAW 264 macrophages, complexes with CD14, LBP and LL-37, data not shown
  Nitric oxide release by CPS-lpxA complexes used in gel-shift: significant reduction in nitric oxide release
RAW 264.7 macrophages; RAW 264 pre-treated with 10 µg/ml LL-37 for 30 min, washed, then CPS-lpxA 50 µg/ml, nitric oxide read-out, Figure S2
  Cytokine release after pre-treatment of macrophages: did not affect cytokine release
RAW 264.7 macrophages; RAW 264.7 induced with CPS-lpxA pre-incubated with 2 µg/ml peptide, nitrite after 24 h, Figure 1D
  Nitric oxide release: inhibited
THP-1 cells [5]
  TNFα release: inhibited
[6]
  CXCL10 (IP-10) release: inhibited
